{"source": "ChEMBL document CHEMBL1129260", "about": "“Evaluation of the stability and animal biodistribution of gadolinium (III) benzylamine-derivatized diethylenetriaminepentaacetic acid” (J Med Chem, 1996)", "test": "Gadolinium(III) stability constants (log K value) for the compound polyamino carboxylate derivative"}
{"smiles": "O=C(O)CN(CCN(CC(=O)O)CC(=O)O)CCN(CC(=O)O)C(COCc1ccccc1)C(=O)O", "note": "(stereo not given)", "values": [{"measurement": "log K Gd(III) stability constant", "value": 22.6}]}
{"smiles": "O=C(O)CN(CCN(CC(=O)O)CC(=O)O)CCN(CC(=O)O)CC(=O)O", "note": "[PENTETIC ACID]", "values": [{"measurement": "log K Gd(III) stability constant", "value": 22.4}]}
{"smiles": "CCN(CCN(CC(=O)O)CC(=O)O)CCN(CC(=O)O)CC(=O)O", "values": [{"measurement": "log K Gd(III) stability constant", "value": 17.8}]}
{"smiles": "CCCOC(=O)CN(CCN(CCN(CC(=O)O)CC(=O)O)CC(=O)O)CC(=O)O", "values": [{"measurement": "log K Gd(III) stability constant", "value": 18.9}]}
{"smiles": "CCCNC(=O)CN(CCN(CCN(CC(=O)O)CC(=O)O)CC(=O)O)CC(=O)O", "values": [{"measurement": "log K Gd(III) stability constant", "value": 19.7}]}
